The record followed here is ChEMBL document CHEMBL1201862, “PubChem BioAssay data set” (2004).

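Step 1: Grow cells in 96-well plates. Step 2: Expose to compound for 48 hours at 5 concentrations. Step 3: Interpolate endpoints linearly; if unreached, use highest concentration. The concentration for 50% growth inhibition is given as GI50.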 Activity calls are given as the source filed them. Cut-off read from the data, not from the text of the source: active = GI50 up to about 1.1 µM and inactive = higher.

Assay in all cases: NCI-60 cell line screen, 48 h
The test system of assay [1] is SR.
In assay [2] the test system is OVCAR-3.
Assay [3] deals with MCF7.
For assay [4], the system named is MDA-MB-231.
Assay [5] has as its system SF-295.
Assay [6] deals with CCRF-CEM.
Assay [7] concerns SF-539.
For assay [8], the system named is T47D.
In assay [9] the test system is K562.
The test system of assay [10] is OVCAR-5.
In assay [11] the test system is MDA-N.
For assay [12], the system named is SNB-75.
Assay [13] relates to SK-OV-3.
The subject of assay [14] is KM12.
Assay [15] deals with UACC-62.
The test system of assay [16] is UO-31.
Assay [17] relates to HOP-62.
The subject of assay [18] is RPMI-8226.
Assay [19] has as its system U-251.
The test system of assay [20] is HCT-116.

Take `COc1ccc(-c2c(C#N)c(O)n(C3OC(CO)C(O)C(O)C3O)c(=S)c2C#N)cc1` (centres undefined): the GI50 in assay [1], in assay [2], in [3], in assay [4], in assay [5] and in assay [6] was > 100 µM (inactive) in each case. Further, the GI50 in [7], in [8], in [9], in assay [10], in [11] and in assay [12] was > 100 µM (inactive) in each case. The GI50 in assay [13], in [14], in [15], in [16], in assay [17] and in assay [18] was > 100 µM (inactive) each time.

With `Cc1cc(C)c2c(c1)CC1(Cc3c(ccc(C)c3C)C1=O)C2=O` (centres undefined), the GI50 in assay [19], in assay [1], in assay [2], in [3], in assay [4] and in [5] was > 100 µM (inactive) throughout. Also, the GI50 in assay [20], in [6], in assay [7], in [8], in [9] and in assay [10] was > 100 µM (inactive) throughout. The GI50 in assay [11], in assay [12], in assay [13], in assay [14], in assay [15] and in [16] was > 100 µM (inactive) in each case. The GI50 in [18] was > 100 µM (inactive).

On to `O=C1N=NC(=O)N1c1cc(C(F)(F)F)cc(C(F)(F)F)c1`, for which the GI50 in assay [19] was 3.12 µM (inactive); in [1] it was 4.69 µM (inactive); in assay [2], 2.44 µM (inactive); in assay [3], 3.35 µM (inactive); in assay [4], 2.38 µM (inactive); in assay [5], 2.78 µM (inactive). For the same compound, the GI50 in [20] is 3.24 µM (inactive); in assay [6], 3.69 µM (inactive); in [7], 4.86 µM (inactive); in [8] it was 3.61 µM (inactive); in assay [9], 3.37 µM (inactive); in assay [10], 4.09 µM (inactive). Further, the GI50 in assay [11] is 4.17 µM (inactive); in [12], 2.95 µM (inactive); in assay [13] it was 3.81 µM (inactive); in [14], 3.93 µM (inactive); in assay [15], 5.65 µM (inactive); in [16], 2.44 µM (inactive). For the same compound, the GI50 in assay [17] is 4.17 µM (inactive); in assay [18], 2.89 µM (inactive).

Turning to `COc1ccc(C(=O)/C=C/c2cccnc2)cc1OC`, the GI50 in assay [19] was 5.09 µM (inactive); in assay [1] it was 1.54 µM (inactive); in assay [2], 3.4 µM (inactive); in assay [3] it was 3.27 µM (inactive); in assay [4] it was 11.1 µM (inactive); in assay [5], 13.4 µM (inactive). Further, the GI50 in assay [20] was 4.36 µM (inactive); in assay [6], 3.51 µM (inactive); in assay [7], 2.73 µM (inactive); in [8] it was 8.45 µM (inactive); in [9] it was 13.9 µM (inactive); in [10] it was 12.1 µM (inactive). The GI50 in [11] was 12.4 µM (inactive); in assay [12], 11.8 µM (inactive); in [13], 15.3 µM (inactive); in [15] it was 14 µM (inactive); in [16] it was 13.5 µM (inactive); in [17], 14.9 µM (inactive). Also, the GI50 in [18] was 2.6 µM (inactive).

As to `C[C@]12CC/C(=N\O)C=C1CC[C@@H]1[C@@H]2CC[C@]2(C)C(=N/O)/C(=C/c3ccc([N+](=O)[O-])cc3)C[C@@H]12`, the GI50 in [1] was 2.79 µM (inactive); in assay [2], 2.61 µM (inactive); in assay [3], 3.59 µM (inactive); in [4], 6.64 µM (inactive); in [5], 3.56 µM (inactive); in [20] it was 3.07 µM (inactive). For the same compound, the GI50 in assay [6] was 2.5 µM (inactive); in [7], 10.4 µM (inactive); in assay [8], 1.05 µM (active); in assay [9], 3.37 µM (inactive); in assay [11], 4.03 µM (inactive); in assay [12], 6 µM (inactive). The GI50 in assay [13] was 15.5 µM (inactive); in [14] it was 4.04 µM (inactive); in assay [15] it was 3.52 µM (inactive); in assay [16], 2.67 µM (inactive); in assay [17] it was 18.4 µM (inactive); in [18], 1.87 µM (inactive).

For `CC1=NC(=Cc2cccc(Cl)c2)C(=O)N1n1c(-c2ccccc2)nc2ccccc2c1=O`, the GI50 in assay [1] is 25.2 µM (inactive); in assay [3] it was 20.4 µM (inactive); in [4], 48.5 µM (inactive); in assay [5], 35.7 µM (inactive); in assay [20] it was 36.5 µM (inactive); in assay [6], 35.6 µM (inactive). Also, the GI50 is 36.1 µM (inactive) in assay [7]; 19.8 µM (inactive) in assay [8]; 41.6 µM (inactive) in assay [9]; 30.4 µM (inactive) in assay [11]; 35.9 µM (inactive) in assay [12]; 37.8 µM (inactive) in assay [13]. The GI50 in [14] was 31.6 µM (inactive); in assay [15], 23.6 µM (inactive); in [16], 39 µM (inactive); in assay [17] it was 24.5 µM (inactive); in assay [18] it was 30.2 µM (inactive).

With `CC1=NC(=O)C(C)(c2ccccc2)N1CCc1ccccc1` (centres undefined), the GI50 was > 100 µM (inactive) in assay [19]; 32 µM (inactive) in [1]; 11.1 µM (inactive) in assay [2]; 55.1 µM (inactive) in assay [3]; 67.6 µM (inactive) in assay [4]; 38.5 µM (inactive) in [5]. The GI50 in [20] was 28 µM (inactive); in assay [6], 36.2 µM (inactive); in assay [7], 85.3 µM (inactive); in assay [8], 22.3 µM (inactive); in assay [9], 34.8 µM (inactive); in [10] it was > 100 µM (inactive). The GI50 in assay [11] is 36.3 µM (inactive); in [12] it was 16.5 µM (inactive); in assay [13] it was > 100 µM (inactive); in assay [14], 44.3 µM (inactive); in assay [15], 44 µM (inactive); in assay [16], > 100 µM (inactive). Further, the results for the GI50 in assay [17] and in assay [18] were > 100 µM (inactive) and 63.1 µM (inactive), respectively.

Consider `COc1ccc(C(=O)N2CCN(c3ccc4c(c3)OCC(=O)N4)CC2)cc1OC`, for which the GI50 in assay [19], in assay [1], in assay [2], in assay [3], in assay [4] and in [5] was > 100 µM (inactive) each time. The GI50 in assay [20] was > 100 µM (inactive); in assay [6] it was > 100 µM (inactive); in assay [7], > 100 µM (inactive); in assay [8], 54.3 µM (inactive); in assay [10], 52 µM (inactive); in assay [11], > 100 µM (inactive). The GI50 in assay [12], in assay [13], in assay [14], in assay [15], in assay [16] and in assay [17] was > 100 µM (inactive) each time. Also, the GI50 in [18] is > 100 µM (inactive).

For the compound `Cc1ccc([N+](=O)[O-])c2c(NCCC[N+](C)(C)[O-])ccnc12`, the GI50 in assay [19] was 83.6 µM (inactive); in assay [1], 48.5 µM (inactive); in assay [2], 33.9 µM (inactive); in [3], 14.9 µM (inactive); in [4], > 100 µM (inactive); in assay [5], 28.8 µM (inactive). The GI50 is 38.9 µM (inactive) in assay [20]; 44.6 µM (inactive) in [6]; > 100 µM (inactive) in assay [7]; 35.1 µM (inactive) in assay [8]; 27.5 µM (inactive) in assay [9]; 28.2 µM (inactive) in assay [10]. Also, the GI50 is > 100 µM (inactive) in assay [11]; 55.7 µM (inactive) in assay [12]; 52 µM (inactive) in assay [13]; 40.1 µM (inactive) in [14]; > 10 µM (inactive) in assay [15]; 78.9 µM (inactive) in assay [16]. Besides, the GI50 in [17] is 29.3 µM (inactive); in [18], 31 µM (inactive).

Regarding `CCCCCCCCCCCC[C@@H](O)[C@H]1CC[C@H]([C@H](O)CC[C@H](O)[C@@H]2CC[C@@H](CCCCCCCC3=C[C@H](C)OC3=O)O2)O1`, the GI50 in assay [19] was > 50 µM (inactive); in assay [1] it was 1.27 µM (inactive); in [2] it was > 50 µM (inactive); in [3] it was > 50 µM (inactive); in assay [4], > 50 µM (inactive); in assay [5] it was > 12.6 µM (inactive). Also, the GI50 in assay [20] was 5.58 µM (inactive); in [6], > 38.4 µM (inactive); in assay [7] it was > 50 µM (inactive); in assay [8] it was > 50 µM (inactive); in [10], > 50 µM (inactive); in assay [11], 6.47 µM (inactive). Moreover, the GI50 is > 50 µM (inactive) in assay [12]; > 50 µM (inactive) in assay [13]; > 50 µM (inactive) in [14]; 1.53 µM (inactive) in assay [15]; > 50 µM (inactive) in assay [16]; > 50 µM (inactive) in [17]. Also, the GI50 in assay [18] is > 37.2 µM (inactive).
